Results published in patent US20100168037A1 (priority 2002, published 2010).
Where two headings read alike, the source gives them in different places. Where a SMILES comes first, the peptide text is derived from it. [ ]: non-standard residue; d: D form.

Key:
[1] = molecular target: BoNT/B neurotoxin (Clostridium botulinum, UniProt P10844); assay type: binding
[2] = molecular target: BoNT/A (Clostridium botulinum, UniProt P0DPI0); assay type: binding
[3] = molecular target: BoNT/B (Clostridium botulinum, UniProt P10844); assay type: binding
[4] = molecular target: BotB complex (Clostridium botulinum, UniProt P10844); assay type: binding
[5] = molecular target: T1, ConA (Canavalia ensiformis, Jack Bean Lectin) (Canavalia ensiformis, UniProt P02866); test: Bead library screen, binding of AP-ConA; conditions: peptide on TentaGel bead; AP / NBT-BCIP detection
T1 construct: purchased EY Laboratories (San Mateo, Calif.)

[6] = molecular target: RCA60 (Ricinus communis, UniProt P02879); assay type: binding
[7] = mouse, in vivo

Chain of BoNT/A (P0DPI0 whole entry, looked up): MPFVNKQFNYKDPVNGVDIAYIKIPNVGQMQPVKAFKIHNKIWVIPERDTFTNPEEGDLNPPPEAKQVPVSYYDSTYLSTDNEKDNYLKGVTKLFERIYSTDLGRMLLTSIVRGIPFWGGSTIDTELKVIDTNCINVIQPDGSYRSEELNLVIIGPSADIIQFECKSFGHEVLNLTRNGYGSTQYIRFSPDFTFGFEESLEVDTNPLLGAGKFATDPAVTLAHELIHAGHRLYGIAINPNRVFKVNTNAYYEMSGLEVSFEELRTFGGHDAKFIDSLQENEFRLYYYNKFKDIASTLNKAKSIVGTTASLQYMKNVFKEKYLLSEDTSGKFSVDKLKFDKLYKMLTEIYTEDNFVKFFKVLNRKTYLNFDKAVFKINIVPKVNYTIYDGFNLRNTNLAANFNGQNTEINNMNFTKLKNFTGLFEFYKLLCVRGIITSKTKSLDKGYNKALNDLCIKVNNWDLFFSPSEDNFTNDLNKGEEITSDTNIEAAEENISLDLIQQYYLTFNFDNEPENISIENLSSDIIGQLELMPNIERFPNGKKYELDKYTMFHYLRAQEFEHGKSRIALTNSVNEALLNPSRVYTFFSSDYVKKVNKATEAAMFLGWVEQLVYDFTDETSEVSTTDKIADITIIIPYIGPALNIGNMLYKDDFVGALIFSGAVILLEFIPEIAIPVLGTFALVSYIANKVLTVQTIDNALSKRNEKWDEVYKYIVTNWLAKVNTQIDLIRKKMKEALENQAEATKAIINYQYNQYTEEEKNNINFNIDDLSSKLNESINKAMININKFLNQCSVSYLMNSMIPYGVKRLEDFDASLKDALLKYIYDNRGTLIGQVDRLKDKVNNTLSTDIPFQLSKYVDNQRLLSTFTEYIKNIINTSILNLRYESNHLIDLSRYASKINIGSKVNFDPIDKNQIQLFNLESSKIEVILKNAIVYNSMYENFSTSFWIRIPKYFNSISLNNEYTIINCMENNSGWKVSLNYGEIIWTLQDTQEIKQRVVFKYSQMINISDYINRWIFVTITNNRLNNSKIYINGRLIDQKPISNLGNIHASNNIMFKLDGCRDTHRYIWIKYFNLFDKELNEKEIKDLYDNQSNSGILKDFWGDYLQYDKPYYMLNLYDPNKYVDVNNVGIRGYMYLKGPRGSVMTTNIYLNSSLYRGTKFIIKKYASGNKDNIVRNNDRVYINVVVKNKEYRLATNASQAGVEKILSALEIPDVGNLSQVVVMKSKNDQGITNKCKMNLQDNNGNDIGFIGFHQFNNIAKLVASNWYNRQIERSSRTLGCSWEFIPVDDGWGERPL
Chain of BotB complex (P10844 2-1291 limits assumed, one chain of several): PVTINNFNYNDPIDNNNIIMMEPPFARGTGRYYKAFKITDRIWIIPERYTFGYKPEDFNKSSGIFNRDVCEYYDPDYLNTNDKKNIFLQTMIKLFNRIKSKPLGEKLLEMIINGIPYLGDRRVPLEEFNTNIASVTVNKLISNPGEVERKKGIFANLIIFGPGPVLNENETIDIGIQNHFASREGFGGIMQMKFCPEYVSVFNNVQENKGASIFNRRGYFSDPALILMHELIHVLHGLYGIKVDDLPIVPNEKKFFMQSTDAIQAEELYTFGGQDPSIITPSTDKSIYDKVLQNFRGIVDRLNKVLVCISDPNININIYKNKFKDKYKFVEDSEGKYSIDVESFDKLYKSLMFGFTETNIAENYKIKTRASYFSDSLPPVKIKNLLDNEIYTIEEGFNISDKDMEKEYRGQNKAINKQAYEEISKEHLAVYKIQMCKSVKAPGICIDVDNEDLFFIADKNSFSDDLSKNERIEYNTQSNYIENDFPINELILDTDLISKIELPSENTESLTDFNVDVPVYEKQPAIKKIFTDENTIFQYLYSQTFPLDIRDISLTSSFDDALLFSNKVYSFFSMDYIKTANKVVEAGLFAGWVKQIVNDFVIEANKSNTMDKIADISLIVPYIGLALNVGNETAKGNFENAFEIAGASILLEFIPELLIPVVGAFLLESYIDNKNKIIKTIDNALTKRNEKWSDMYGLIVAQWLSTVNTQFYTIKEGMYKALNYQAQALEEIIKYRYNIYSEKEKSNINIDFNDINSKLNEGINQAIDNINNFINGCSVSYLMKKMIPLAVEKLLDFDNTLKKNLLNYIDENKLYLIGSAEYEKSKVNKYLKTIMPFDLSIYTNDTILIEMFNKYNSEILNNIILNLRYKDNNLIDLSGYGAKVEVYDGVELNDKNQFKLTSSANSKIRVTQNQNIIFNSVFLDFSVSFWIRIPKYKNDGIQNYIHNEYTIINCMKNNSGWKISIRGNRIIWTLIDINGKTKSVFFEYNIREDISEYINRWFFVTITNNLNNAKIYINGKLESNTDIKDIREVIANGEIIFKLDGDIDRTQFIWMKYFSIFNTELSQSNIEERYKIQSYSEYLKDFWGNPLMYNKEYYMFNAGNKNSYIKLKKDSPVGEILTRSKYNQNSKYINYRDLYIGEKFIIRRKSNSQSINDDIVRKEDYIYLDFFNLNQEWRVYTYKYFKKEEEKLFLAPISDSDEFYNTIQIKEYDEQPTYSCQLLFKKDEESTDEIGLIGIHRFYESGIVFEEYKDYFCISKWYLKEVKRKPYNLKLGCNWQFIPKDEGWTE
Chain of BoNT/B neurotoxin (P10844 whole entry, looked up): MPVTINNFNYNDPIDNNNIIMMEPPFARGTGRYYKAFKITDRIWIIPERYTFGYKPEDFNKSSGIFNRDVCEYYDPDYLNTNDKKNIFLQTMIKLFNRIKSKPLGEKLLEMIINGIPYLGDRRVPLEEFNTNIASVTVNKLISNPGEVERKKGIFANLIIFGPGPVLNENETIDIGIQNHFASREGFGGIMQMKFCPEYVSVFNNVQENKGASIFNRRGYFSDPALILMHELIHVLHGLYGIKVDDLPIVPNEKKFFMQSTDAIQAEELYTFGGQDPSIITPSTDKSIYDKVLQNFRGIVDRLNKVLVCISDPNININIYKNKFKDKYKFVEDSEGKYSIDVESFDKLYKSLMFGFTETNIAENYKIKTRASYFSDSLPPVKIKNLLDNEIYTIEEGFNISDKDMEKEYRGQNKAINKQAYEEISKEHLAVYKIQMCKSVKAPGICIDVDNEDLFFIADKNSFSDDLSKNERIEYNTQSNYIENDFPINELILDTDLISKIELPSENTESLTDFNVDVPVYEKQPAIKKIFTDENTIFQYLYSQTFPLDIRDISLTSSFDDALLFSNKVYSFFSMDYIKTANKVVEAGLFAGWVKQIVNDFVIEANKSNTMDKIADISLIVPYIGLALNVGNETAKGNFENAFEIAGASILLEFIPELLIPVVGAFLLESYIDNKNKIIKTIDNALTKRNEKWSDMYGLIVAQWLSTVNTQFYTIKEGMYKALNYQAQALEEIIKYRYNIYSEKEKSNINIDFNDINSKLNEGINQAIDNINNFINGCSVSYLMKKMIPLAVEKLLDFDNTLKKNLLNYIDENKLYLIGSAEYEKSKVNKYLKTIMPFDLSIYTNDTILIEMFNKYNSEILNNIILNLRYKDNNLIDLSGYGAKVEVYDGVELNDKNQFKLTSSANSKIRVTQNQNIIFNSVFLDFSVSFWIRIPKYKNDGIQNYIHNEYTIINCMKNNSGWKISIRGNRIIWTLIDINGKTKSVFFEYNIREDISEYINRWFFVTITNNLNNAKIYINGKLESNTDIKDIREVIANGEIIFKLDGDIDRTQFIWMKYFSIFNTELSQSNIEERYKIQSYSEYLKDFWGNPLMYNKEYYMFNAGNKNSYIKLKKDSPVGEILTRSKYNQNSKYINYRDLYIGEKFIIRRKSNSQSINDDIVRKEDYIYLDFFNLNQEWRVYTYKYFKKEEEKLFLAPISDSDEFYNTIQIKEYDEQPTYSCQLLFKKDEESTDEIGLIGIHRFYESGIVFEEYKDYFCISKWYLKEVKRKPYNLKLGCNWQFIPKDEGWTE

Structure (SMILES)	binding of BoNT/B to D-peptide bead (positive bead sequenced) [1]	binding of BoNT/A in the microplate binding assay [2]	binding of BoNT/B in the microplate binding assay [3]	Saturation Concentration [6]	other results
NCCCC[C@@H](NC(=O)[C@@H](CCCCN)NC(=O)[C@@H](CCCCN)NC(=O)[C@@H](Cc1ccc(O)cc1)NC(=O)[C@@H](Cc1ccccc1)NC(=O)[C@@H](Cc1ccccc1)NC(=O)[C@@H](Cc1ccccc1)NC(=O)CN)C(=O)O [GFFFY] (H-G[dF][dF][dF][dY][dK][dK][dK]-OH; C-terminus assumed)	binding	bound	bound	–	Saturation Concentration [2]: 3 to 4 nM; Kd ([2]; read-out: Estimated Kd): 1 to 2 nM; Saturation Concentration [3]: 3 to 4 nM; Kd ([3]; read-out: Estimated Kd): 1 to 2 nM; Saturation Concentration [4]: 2.3 nM; binding of BotB complex in the microplate binding assay [4]: bound; Kd ([4]; read-out: Estimated Kd): 0.022 nM
NCCCC[C@@H](NC(=O)[C@@H](CCCCN)NC(=O)[C@@H](CCCCN)NC(=O)[C@@H](Cc1ccccc1)NC(=O)[C@@H](Cc1ccccc1)NC(=O)[C@@H](Cc1ccc(O)cc1)NC(=O)[C@@H](Cc1ccccc1)NC(=O)CN)C(=O)O [GFYFF] (H-G[dF][dY][dF][dF][dK][dK][dK]-OH; C-terminus assumed)	binding	–	–	100 nM	binding of ConA to D-peptide bead (positive bead sequenced) [5]: binding
NCCCC[C@@H](NC(=O)[C@@H](CCCCN)NC(=O)[C@@H](CCCCN)NC(=O)[C@@H](Cc1ccc(O)cc1)NC(=O)[C@@H](Cc1c[nH]c2ccccc12)NC(=O)CNC(=O)[C@@H](Cc1ccccc1)NC(=O)CN)C(=O)O [GFGWY] (H-G[dF]G[dW][dY][dK][dK][dK]-OH; C-terminus assumed)	identified	bound	bound	–	–
C[C@@H](N)C(=O)N[C@H](Cc1ccccc1)C(=O)N[C@H](Cc1ccc(O)cc1)C(=O)N[C@H](C)C(=O)N[C@H](Cc1ccc(O)cc1)C(=O)N[C@H](CCCCN)C(=O)N[C@H](CCCCN)C(=O)N[C@H](CCCCN)C(=O)O [AFYAY] (H-[dA][dF][dY][dA][dY][dK][dK][dK]-OH; C-terminus assumed)	–	–	–	100 nM	–
NCCCC[C@@H](NC(=O)[C@@H](CCCCN)NC(=O)[C@@H](CCCCN)NC(=O)[C@@H](Cc1ccc(O)cc1)NC(=O)CNC(=O)[C@@H](Cc1c[nH]c2ccccc12)NC(=O)[C@@H](Cc1ccccc1)NC(=O)CN)C(=O)O [GFWGY] (H-G[dF][dW]G[dY][dK][dK][dK]-OH)	–	–	–	–	signs of toxicity ([7]; ip): no apparent toxicity; signs of toxicity ([7]; iv): no apparent toxicity
C[C@@H](NC(=O)CN)C(=O)N[C@H](Cc1ccccc1)C(=O)N[C@H](Cc1ccccc1)C(=O)N[C@H](Cc1c[nH]c2ccccc12)C(=O)N[C@H](CCCCN)C(=O)N[C@H](CCCCN)C(=O)N[C@H](CCCCN)C(=O)O [GAFFW] (H-G[dA][dF][dF][dW][dK][dK][dK]-OH; C-terminus assumed)	identified	bound	bound	–	–
